The source of these data is PMC11152041, “Tricarbonyl rhenium(I) complexes with 8-hydroxyquinolines: structural, chemical, antibacterial, and anticancer characteristics” (RSC Advances, 2024).

For one assay, the system named is E. coli ATCC25922. In words: Broth microdilution MIC/MBC (ISO 20776-1). Type of assay: cell-based, Escherichia coli. The procedure:
(§1) Bacterial strains and cell lines were obtained from the American Type Culture Collection (ATCC).[59] […] Antimicrobial activity was tested in Müeller Hinton (MH) II broth (Becton Dickinson). For anticancer activity assay, the following reagents from Merk were used: 3-(4,5-dimethylthiazol-2-yl)-2,5-diphenyltetrazolium bromide (MTT), sodium dodecyl sulfate (SDS) and HCl. The solubilized formazan product was spectrophotometrically quantified in a Power Wave XS (Bio Tek, Winooski, VT, USA) microplate reader. The HL-60 and PC-3 cells were grown in RPMI-1640 medium with stable glutamine (Biowest) supplemented with 10% (v/v) of heat-inactivated fetal bovine serum (FBS, Biowest) and 1% (v/v) of antibiotic–antimycotic solution (Biowest). The SKOV-3 cells were grown in McCoy's 5A medium with L-glutamine (Biowest) supplemented with 10% (v/v) heat-inactivated FBS, and 1% (v/v) antibiotic–antimycotic solution. The MCF-7 cells were grown in Eagle's MEM (Minimal Essential Medium) medium with stable glutamine (Biowest), supplemented with 10% (v/v) heat-inactivated FBS 1% (v/v) MEM non-essential amino acids (Biowest), 1% (v/v) antibiotic–antimycotic solution, and 1 mM sodium pyruvate (Merck). The MCF-10A cells were grown in Ham's F-12K (Kaighn's) Medium with stable glutamine (Gibco) supplemented with 5% (v/v) heat-inactivated FBS, 1% (v/v) MEM non-essential amino acids, 1% (v/v) antibiotic–antimycotic solution, 5 μg mL^−1 insulin, 0.04 μg mL^−1 hydrocortisone (Merck), and 15 ng mL^−1 human Epidermal Growth Factor (hEGF, PeproTech).
(§2) The in vitro antibacterial activity was determined according to ISO 20776-1.[88] Among the tested microorganisms were Gram-negative rods, E. coli ATCC25922 and P. aeruginosa ATCC27853, and Gram-positive cocci, S. aureus ATCC29213 and E. faecalis ATCC29212. The selected bacterial species represented the most common etiologic agents of human infections and are used for quality control of antimicrobial susceptibility testing.[89] The test procedure included the determination of MICs and MBCs of complexes and their free ligands. MIC and MBC determinations of ciprofloxacin, as the reference antibiotic, were also performed. All compounds were dissolved in DMSO to reach the maximum 512 mg L^−1 concentration. […] The assay consisted of preparing 2-fold dilutions of the substances in a liquid growth medium MH II and inoculating them with a standardized suspension of microorganisms at a McFarland density of 0.5 (≈10^8 CFU mL^−1). The culture plates were incubated at 35 °C for 24 h. The lowest concentration of the compound inhibiting visible bacterial growth was specified as MIC, and the concentration that reduced bacterial growth by >99.99% after counting live bacteria on the plates compared to the positive control was defined as MBC.

For the next assay, the system named is P. aeruginosa ATCC27853. Briefly: Broth microdilution MIC/MBC (ISO 20776-1). Type of assay: cell-based, Pseudomonas aeruginosa. The procedure:
as §1, §2

For a further assay, the system named is S. aureus ATCC29213. In words: Broth microdilution MIC/MBC (ISO 20776-1). Type of assay: cell-based, Staphylococcus aureus. The procedure: as §1, §2
The subject of the next assay is E. faecalis ATCC29212. Briefly: Broth microdilution MIC/MBC (ISO 20776-1). Type of assay: cell-based, Enterococcus faecalis. The procedure: as §1, §2
A further assay has as its system HL-60 cells. In words: MTT cytotoxicity assay. Type of assay: cell-based, human. The conditions noted are these: read-out: IC50 ± SD. The procedure:
(§3) The cytotoxicities for studied compounds were evaluated against leukemia cells (HL-60), as well as ovarian (SKOV-3), prostate (PC-3), and breast (MCF-7) cancer cell lines. The potential selectivity of these compounds towards cancer cells was assessed by determination of their cytotoxicities towards breast non-cancerous cells (MCF-10A). For comparison, cisplatin was added to the cytotoxicity assays.
as §1
(§4) The cells were cultured in 96-well plates and incubated with the tested compound for 24 h and 48 h. All experiments were performed in exponentially growing cultures. The 0.03 M solutions of the compounds in DMSO were appropriately diluted using culture media. The maximal final concentration of DMSO in each well was 0.1%. The cytotoxicity of the compounds was measured by determining cell viability with a colorimetric test based on 3-(4,5-dimethylthiazol-2-yl)-2,5-diphenyltetrazolium bromide (MTT). MTT stock solution was added to each well to a final concentration of 0.5 mg mL^−1 and incubated for 4 h at 37 °C; following formazan crystals were dissolved by the addition of sodium dodecyl sulfate (SDS) solution (10% SDS in 0.001 M HCl). MTT and SDS were added directly to the cell culture. The compound's IC50 values (concentration required to reduce the viability of cells by 50% compared with the control cells) were calculated from the data obtained with the MTT assay.

The test system of a further assay is MCF-7 cells. Briefly: MTT cytotoxicity assay. Type of assay: cell-based, human. To be noted: for IC50: read-out: IC50 ± SD. The procedure:
as §3, §1, §4

Another assay concerns PC-3 cells. In words: MTT cytotoxicity assay. Type of assay: cell-based, human. To be noted: read-out: IC50 ± SD. The procedure:
as §3, §1, §4

The subject of the next assay is SKOV-3 cells. Briefly: MTT cytotoxicity assay. Type of assay: cell-based, human. The conditions noted are these: for IC50: read-out: IC50 ± SD. The procedure:
as §3, §1, §4

The subject of a further assay is MCF-10A cells. In words: MTT cytotoxicity assay. To be noted: for IC50: read-out: IC50 ± SD. The procedure:
as §3, §1, §4

Setting [1] is: MCF-10A (non-cancerous), 24 h, MTT, * precipitation of the complex.
Where [2] appears, read: MCF-10A (non-cancerous), 48 h, MTT, * precipitation of the complex.

Molecules are shown by their SMILES. ≈ marks a conversion by molar mass, not a printed value. Where two headings read alike, the source gives them in different places.

On to `Oc1cccc2cccnc12` [HQ, 8-hydroxyquinoline], for which the MBC against E. coli ATCC25922 (Escherichia coli, ATCC25922) is above 512 µg/mL; against P. aeruginosa ATCC27853 (Pseudomonas aeruginosa, ATCC27853), above 512 µg/mL; with S. aureus ATCC29213 (Staphylococcus aureus, ATCC29213), 64 µg/mL (≈ 441 µM); in the assay on E. faecalis ATCC29212 (Enterococcus faecalis, ATCC29212), 32 µg/mL (≈ 220 µM). For the same compound, the minimal inhibitory concentration (MIC) in the assay with E. coli ATCC25922 (Escherichia coli, ATCC25922, 24 h) is 32 µg/mL (≈ 220 µM); against P. aeruginosa ATCC27853 (Pseudomonas aeruginosa, ATCC27853, 24 h), 256 µg/mL (≈ 1760 µM); in the assay with S. aureus ATCC29213 (Staphylococcus aureus, ATCC29213, 24 h), 16 µg/mL (≈ 110 µM); against E. faecalis ATCC29212 (Enterococcus faecalis, ATCC29212, 24 h), 2 µg/mL (≈ 13.8 µM). Further, the IC50 in the assay on HL-60 cells (Homo sapiens, HL-60, 24 h) turned out to be 2.2 ± 0.2 µM; in the assay with HL-60 cells (Homo sapiens, HL-60, 48 h), 2 ± 0.2 µM; in the assay on MCF-7 cells (Homo sapiens, MCF7, 24 h) it was 24 ± 6 µM; in the assay on MCF-7 cells (Homo sapiens, MCF7, 48 h), 7 ± 2 µM; with PC-3 cells (Homo sapiens, PC-3, 24 h) it was 18 ± 2 µM; in the assay with PC-3 cells (Homo sapiens, PC-3, 48 h) it was 29 ± 3 µM. Besides, the IC50 with SKOV-3 cells (Homo sapiens, SK-OV-3, 24 h) is above 100 µM; with SKOV-3 cells (Homo sapiens, SK-OV-3, 48 h), 29 ± 5 µM; in the assay on MCF-10A cells (Homo sapiens, MCF-10A, 24 h), above 100 µM; in the assay with MCF-10A cells (Homo sapiens, MCF-10A, 48 h), above 100 µM. The “selectivity: IC50 for normal cells times higher than for breast cancer cells” value in the assay on MCF-7 cells (MCF-10A versus MCF-7) was “at least 3 times”.
As to `[C-]#[O+].[C-]#[O+].[C-]#[O+].[Re][O]c1cccc2cccnc12.c1ccc(-c2ccn[nH]2)cc1` [complex 4, [Re(CO)3(Q)HPhpz]·0.5CH3CN], the MBC was >512/>512 mg L^−1 in the assay on E. coli ATCC25922 (E. coli ATCC25922, >99.99% reduction of growth); >512/>512 mg L^−1 against P. aeruginosa ATCC27853 (P. aeruginosa ATCC27853, >99.99% reduction of growth); above 512 µg/mL in the assay on S. aureus ATCC29213 (S. aureus ATCC29213, >99.99% reduction of growth); above 512 µg/mL against E. faecalis ATCC29212 (E. faecalis ATCC29212, >99.99% reduction of growth). Also, the MIC with E. coli ATCC25922 (E. coli ATCC25922, MH II broth, 35 °C, 24 h) is >512/>512 mg L^−1; against P. aeruginosa ATCC27853 (P. aeruginosa ATCC27853, MH II broth, 35 °C, 24 h), >512/>512 mg L^−1; against S. aureus ATCC29213 (S. aureus ATCC29213, MH II broth, 35 °C, 24 h), 256 µg/mL; with E. faecalis ATCC29212 (E. faecalis ATCC29212, MH II broth, 35 °C, 24 h) it was 32 µg/mL. The IC50 stood at 9 ± 1 µM in the assay with HL-60 cells (HL-60, 24 h, MTT); 9 ± 1 µM in the assay with HL-60 cells (HL-60, 48 h, MTT); 73 ± 3 µM in the assay with MCF-7 cells (MCF-7, 24 h, MTT); 50 ± 3 µM with MCF-7 cells (MCF-7, 48 h, MTT); 42 ± 6 µM in the assay on PC-3 cells (PC-3, 24 h, MTT); 27 ± 3 µM in the assay with PC-3 cells (PC-3, 48 h, MTT). The half-maximal inhibitory concentration (IC50) was above 100 µM with SKOV-3 cells (SKOV-3, 24 h, MTT); 81 ± 9 µM in the assay with SKOV-3 cells (SKOV-3, 48 h, MTT); 50 ± 5 µM with MCF-10A cells (setting [1]); 36 ± 4 µM with MCF-10A cells (setting [2]).
As for `N.N.[Cl][Pt][Cl]` [cisplatin, reference compound], the IC50 in the assay with HL-60 cells (HL-60, 24 h, MTT) is 46 ± 1 µM; in the assay on PC-3 cells (PC-3, 24 h, MTT), 58 ± 6 µM; with PC-3 cells (PC-3, 48 h, MTT), 20 ± 2 µM; in the assay with SKOV-3 cells (SKOV-3, 24 h, MTT), above 100 µM; in the assay on SKOV-3 cells (SKOV-3, 48 h, MTT) it was above 100 µM; in the assay with MCF-10A cells (setting [1]), above 100 µM. The IC50 with MCF-10A cells (setting [2]) was above 100 µM. Moreover, the activity result with SKOV-3 cells (SKOV-3, incubation time not given) was “no action”. In addition, the “IC50 / activity on normal cells” value with MCF-10A cells (MCF-10A, incubation time not given) was “no action”.
